Assay results taken from ChEMBL document CHEMBL1145258, “Geometry, topology, and atom-weights assembly descriptors to predicting A1 adenosine receptors agonists” (Bioorg Med Chem Lett, 2005).

What follows are compounds tested against T1, Adenosine receptor A1 (Rattus norvegicus, UniProt P25099) (assay: Inhibition of [3H]R-PIA binding to Adenosine A1 receptor from rat brain membrane).
T1 sequence (P25099 whole entry): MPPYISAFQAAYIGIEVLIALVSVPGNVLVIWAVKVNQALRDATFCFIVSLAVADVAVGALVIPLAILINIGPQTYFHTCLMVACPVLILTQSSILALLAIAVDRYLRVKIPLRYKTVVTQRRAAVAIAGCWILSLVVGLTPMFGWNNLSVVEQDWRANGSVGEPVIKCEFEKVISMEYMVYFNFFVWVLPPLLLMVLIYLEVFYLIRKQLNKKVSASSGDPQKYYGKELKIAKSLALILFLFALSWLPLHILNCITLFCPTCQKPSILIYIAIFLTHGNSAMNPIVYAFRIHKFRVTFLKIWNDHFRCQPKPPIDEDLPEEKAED

| Structure (SMILES) | Ki [nM] |
| --- | --- |
| CCNC(O)[C@H]1O[C@@H](n2cnc3c(NC(=O)Nc4ccc(S(=O)(=O)Nc5cc(C)on5)cc4)ncnc32)[C@H](O)[C@@H]1O (some centres undefined) | 901 |
| CCNC(=O)[C@H]1OC(n2cnc3c(NC(=O)c4ccc(Cl)cc4Cl)ncnc32)[C@H](O)[C@@H]1O (some centres undefined) | 16 |
| CCNC(=O)[C@H]1OC(n2cnc3c(NC(=O)Nc4ccc(S(=O)(=O)Nc5ccccn5)cc4)ncnc32)[C@H](O)[C@@H]1O (some centres undefined) | 292 |
| CCNC(=O)[C@@H]1OC(n2cnc3c(NC(=O)Nc4ccc(S(=O)(=O)Nc5ncccn5)cc4)ncnc32)[C@@H](O)[C@H]1O (some centres undefined) | 725 |
